Experiments:
Format in all cases: cell-based
HeLa = assay: Endocytosis pathway analysis with inhibitors; details: inhibitor pre-incubated 30 min (400 mM sucrose, 30 μM EIPA), then 100 μM Py-FFK-Az, 5 μM Py-FFK-Biotin, 400 nM streptavidin-FITC 3 h, flow cytometry, n = 3
Experimental: We next examined the cellular localization of Supra‐LYTAC using CLSM. […] To understand the lysosomal trafficking mechanism, we conducted inhibitor studies. […]
fluorometer (F-7000, Hitachi). The ratio for I1 band and I3 band was plotted to obtain CAC […]
S.1.12. Transmission electron microscopy study. To confirm the peptide self-assembly nanostructures, 50 μM of peptide solution in water was prepared. Then, 8 μL was dropped onto a copper grid. After the droplet is fully dried, it was repeated once more. After that, negative staining was achieved using 2 wt% uranyl acetate solution for 10 min in RT. After washing using DI water, the self-assembly morphology was visualized using JEM-1400 by JEOL and […]
To visualize peptide-protein nanocomplex, streptavidin stock solution was added into the solution consisting of 50 μM peptide solution (mixture of Py-FFK-Az and Py-FFK-Biotin in 20:1 ratio) to obtain 400 nM and 10 μM solutions. Then, TEM sample was prepared with the same protocol of peptide self-assembly visualization.
S.1.13. Circular dichroism spectroscopy. 100 μM peptide solution was initially prepared.
The solution was transferred into quartz cell with 1 mm path length (Hellma), and CD spectrum was recorded using CD spectrometer (J-815, JASCO) under the flow of nitrogen.
S.1.14. FT-IR spectroscopy. 1 mM peptide solution was prepared for FT-IR spectroscopy.
The solution was measured using L1600300 Spectrum TWO LiTa FT-IR spectrometer by […]
S.1.15. Cell culture. HeLa, 4T1, and NIH/3T3 were supplied from Korean Cell Line Bank. […]
After growing for 24 h, Py-FFK-Az, Py-FFK-Biotin, Py-GGK-Az, Py-GGK-Biotin was treated with different concentrations. […] After 4 h incubation, MTT formazan was solubilized by SDS solution, and monitored using SpectraMax M5e Multi Mode Microplate Reader by Molecular Devices.
S.1.17. […] After that, the cells were washed and analyzed using FACSverse (Becton Dickinson And Company).
S.1.18. […] After that, the cells were washed and analyzed using confocal laser scanning microscopy (LSM780 and 880 by ZEISS). […]

PD‐L1 [1] = molecular target: T1, PD‐L1 (Homo sapiens, UniProt Q9NZQ7); assay: Western blot analysis for PD-L1 degradation, HeLa; details: 24 h, 1:1 ratio (100 μM each)
T1 construct: endogenous in cells; host or cells: HeLa
Experimental: (§1) We next evaluated PD‐L1 degradation using Western blot (WB) analysis. […] Initially, we verified BMS‐conjugated peptides were non‐toxic by MTT assay (Figure S37, Supporting Information). We then assessed PD‐L1 degradation in HeLa cells after 24‐h treatment with 100 µM Py‐FFK‐Az and varying concentrations of Py‐FFK‐BMS. […] To further assess the effect for Py‐FFK‐Az, we conducted WB analysis with 100 µM Py‐FFK‐BMS at varying concentration for Py‐FFK‐Az. […] PD‐L1 degradation was inhibited by co‐treatment with CAIX inhibitor, confirming the role of CAIX‐mediated endocytosis in lysosomal uptake (Figure S39, Supporting Information). To further validate lysosome‐dependent protein degradation, we conducted WB analysis with chloroquine, a lysosomal inhibitor. […] Furthermore, PD‐L1 fluorescence was restored when chloroquine was co‐administered with the 1:1 Py‐FFK‐Az:Py‐FFK‐BMS mixture, confirming lysosomal involvement in PD‐L1 degradation. […]
(§2) μM Py-FFK-Az and 5μM Py-FFK-Biotin was co-incubated with 400 nM streptavidin-FITC. […]
(§3) as counterstaining agent. IF signals were analyzed using confocal laser scanning microscopy […]
(§4) S.1.22. […] Tumor growth was monitored using the digital caliper. We calculated the tumor volume using the formula [volume = (tumor length) × (tumor width)2/2]. […] The tumor size and body weight were measured and […]
(§5) S.1.23. […] All the data are expressed as mean ± standard deviation (SD). […]

PD‐L1 [2] = molecular target: T1, PD‐L1; assay: Immunofluorescence analysis of PD-L1, HeLa; details: 24 h
Experimental: as §1, §2, §3, §4, §5

T1 sequence (Q9NZQ7 19-290): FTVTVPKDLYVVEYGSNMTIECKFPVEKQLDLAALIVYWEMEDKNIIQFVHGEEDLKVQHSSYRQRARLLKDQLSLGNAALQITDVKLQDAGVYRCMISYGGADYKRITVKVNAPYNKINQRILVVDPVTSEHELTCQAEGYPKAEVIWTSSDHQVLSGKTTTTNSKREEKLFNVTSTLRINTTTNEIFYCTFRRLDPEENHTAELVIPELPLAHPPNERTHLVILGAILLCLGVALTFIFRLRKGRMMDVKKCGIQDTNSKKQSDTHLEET

Row | effect of inhibitor co-treatment on PD-L1 degradation by Py-FFK-Az and Py-FFK-BMS (WB) (PD‐L1 [1]) | PD-L1 immunofluorescence on chloroquine co-administration with 1:1 Py-FFK-Az:Py-FFK-BMS (PD‐L1 [2]) | SMILES | effect of inhibitor on POI uptake by Supra-LYTAC (HeLa)
1 |  |  | CCN(c1nc(N)c(C(=O)NC(=N)N)nc1Cl)C(C)C [EIPA] | no effect
2 | inhibited |  | CC(=O)Nc1nnc(S(N)(=O)=O)s1 [acetazolamide] | significantly reduced
3 | significantly reduced PD‐L1 degradation | restored | CCN(CC)CCCC(C)Nc1ccnc2cc(Cl)ccc12 (stereo not drawn) [chloroquine] | 
4 |  |  | OC[C@H]1O[C@@](CO)(O[C@H]2O[C@H](CO)[C@@H](O)[C@H](O)[C@H]2O)[C@@H](O)[C@@H]1O [sucrose] | substantially reduced
